Earlier results, collected in EP1790727A2, “Proteins and nucleic acids encoding same” (Curagen Corporation, priority 2000, dated 2002).
Where two headings read alike, the source gives them in different places.

Legend:
[1] = in vivo, mouse paw
[2] = molecular target: MgATP-actin (Homo sapiens, UniProt P68133); conditions: but not CaATP-actin
[3] = system: keratinocyte; conditions: after 4-5 h; as little as 10 pg of Tbeta4
[4] = for increased reepithelialization over saline controls: topically or intraperitoneally
[5] = system: neutrophil; conditions: in vitro

Substance	carrageenin-induced edema [1]	proteolysis at Gly(46) on subdomain 2, faster when Tbeta(4) is bound [2] [times]	migration stimulated over migration with medium alone [3]	wound contraction more than controls ([4]; by day 7)	collagen deposition and angiogenesis in the treated wounds ([4]; rat, in vivo)	increased reepithelialization over saline controls ([4]; at 4 d) [%]	increased reepithelialization over saline controls ([4]; at 7 d post-wounding) [%]	neutrophil chemotaxis [5]
thymosin beta4 [Tbeta4]	not	> 12	2-3 fold	at least 11%	Increased	42	≤ 61	–
thymosin beta4 sulfoxide	potent inhibitor	–	–	–	–	–	–	inhibited
